“Also recorded” adds a separate entry of the source.
B1: Amuc_1409: SEQ ID NO: 15, functional fragment obtained by eliminating the leader sequence from SEQ ID NO: 14; protein derived from Akkermansia muciniphila (protein)
chain: IPESSVPAAAVSSIKGAYPNAGPIEWDSEMHGMERIYEAEFRINGFQFDVKIAPDGKIVRIKEEIAASSLPEAVRASVLKRYPGCRIKEAEKITEGELVRYKVEVADSRDDYDVLIAPDGNILHVDR
modifications: Amuc_1409_fragment
notes: protein derived from Akkermansia muciniphila

Key:
[1] = test system: collagen induced arthritis (CIA) model; assay: Collagen induced arthritis (CIA) rheumatoid arthritis model; type: in vivo, DBA/1J mice; conditions: vs PBS buffer group; for thickness of the ankle joint: at the end of the experiment
[2] = test system: non-alcoholic hepatitis model; assay: High-fat diet-induced non-alcoholic steatohepatitis model, liver gene expression; type: in vivo, C57BL/6J mice; conditions: RT-qPCR; vs PBS buffer group
Description: A non-alcoholic hepatitis model was induced by feeding a high-fat diet to 8-week-old SPF male C57BL/6J mice. The experiment for groups administered with Amuc_1409 and PEP001 to PEP005 was performed as follows. Mice fed a high-fat diet for 45 weeks were fed a high-fat diet for an additional 3 weeks, and Amuc_1409 was dissolved in PBS buffer at a concentration of 2.4 μM and then orally administered to the mice by 150 μL per animal at the same time once a day until the end of the experiment, or mice fed a high-fat diet for 8 weeks were fed a high-fat diet for an additional 3 weeks, and PEP001, PEP002, PEP003, PEP004, or PEP005 was dissolved in PBS buffer at a concentration of 2.4 μM and then orally administered to the mice by 150 μL per animal at the same time once a day until the end of the experiment. To the control group, PBS buffer was orally administered in the same manner. The experiment for groups administered with PEP006 to PEP013 was performed as follows. The non-alcoholic hepatitis model was induced by ad libitum feeding of a high-fat diet for 32, 50, or 53 weeks. Mice fed a high-fat diet for 50 weeks were fed a high-fat diet for an additional 3 weeks, and a novel tetrapeptide PEP006, PEP007, PEP008, PEP009, or PEP010 was dissolved in PBS buffer at a concentration of 0.2 μg/150 μL and then orally administered to the mice by 150 μL per animal at the same time until the end of the test, and mice fed a high-fat diet for 53 weeks were fed a high-fat diet for an additional 3 weeks, and a novel […] PEP011, PEP012, or PEP013 was dissolved in PBS buffer at a concentration of 0.2 μg/150 μL and then orally administered to the mice by 150 μL per animal at the same time until the end of the test. To the control group, PBS buffer was orally administered in the same manner. At the end of the experiment, a part of the liver harvested was homogenized with Trizol to extract RNA. Reverse transcriptase was added to the obtained RNA and reacted to synthesize cDNA, and SYBR Green and primers were added to perform quantitative real-time PCR (RT-qPCR), and then the expression levels of genes such as Tnfα, Il-1β, Il-10, and Il-1rn were quantified.

[3] = test system: depression and anxiety model; assay: LPS-induced depression and anxiety model (TST, FST, EPM); type: in vivo, C57BL/6J mice; conditions: vs PBS buffer group; for Ifnγ mRNA expression in brain tissue (hippocampus) / Il-10 mRNA expression in brain tissue (hippocampus): RT-qPCR; for immobility time in forced swim test / immobility time in tail suspension test: oral, LPS-induced
Description: By Daehan Biolink, 7-week-old male C57BL/6J mice weighing 20-22 g were supplied, and the animals were sufficiently supplied with solid feed and water until the day of the experiment, acclimatized for 1 week while maintaining an environment with a temperature of 22° C. 2° C., a humidity of 55%±15%, and a 12-hour light/dark cycle, and then used in the experiment. From 3 days before inducing depression and anxiety, the peptide was dissolved in PBS buffer and orally administered to the mice by 150 μL per animal at the same time once a day. Amuc_1409 or PEP001, PEP002, PEP003, PEP004, or PEP005 was dissolved in PBS buffer at a concentration of 6.7 μM and then used, and novel tetrapeptides PEP006, PEP007, PEP008, PEP009, and PEP010 and novel tripeptides PEP011, PEP012, and PEP013 were each dissolved in PBS buffer at a concentration of 0.2 μg/150 μL and then used. On the 3rd day of peptide administration, lipopolysaccharide (LPS) dissolved in PBS buffer was intraperitoneally injected at a concentration of 0.8 mg/kg to induce depression and anxiety. Tail suspension test (TST) and forced swim test (FST) were conducted to analyze the effect on depression. As the TST, a tail suspension device was installed in an open white acrylic box of 20 cm×25 cm×30 cm size, and the mouse was suspended upside down at a height where the mouse's tail would not touch the floor, and then the time for which the mouse maintained immobility while observing in the same environment was measured for 6 minutes. […] Water at around 25° C. was filled in a transparent acrylic cylinder (45 cm depth×18 cm diameter) up to 30 cm from the bottom, the mouse was exposed to water, and the time for which the mouse maintained immobility while swimming was measured for 6 minutes. […] An elevated plus-maze (EPM) test was performed to analyze the effect on anxiety level. The EPM device consists of two open arms (50 cm×10 cm) and two […] (50 cm×10 cm) at a height of 50 cm from the floor, and the arms are connected by a central area of 10 cm×10 cm. At the start of the experiment, the mouse was placed in the center of the maze and the time for which the mouse stayed in the open arm was measured for a total of 5 minutes using a video camera, and the percentage of time spent in the open arm was calculated and recorded [(time spent in open arm/time spent in open and closed arms)×100]. In addition, in order to examine the anti-inflammatory activity according to the administration of Amuc_1409 and PEP001, PEP002, PEP003, PEP004, and PEP005 in an animal model of depression and anxiety, the expression of Ifnγ and Il-10 mRNA, which are major inflammatory genes related to depression, in brain tissue (hippocampus) was examined.

| Molecule | thickness of the ankle joint [1] | arthritis index (clinical score by date) [1] | swelling of the hind paws by macrophotography [1] | 11-10, which is an anti-inflammatory index (liver gene expression) [2] | Il-1p gene expression in liver tissue [2] | Ifnγ mRNA expression in brain tissue (hippocampus) [3] | Il-10 mRNA expression in brain tissue (hippocampus) [3] | immobility time in forced swim test [3] | immobility time in tail suspension test [3] | time spent in the open arm, elevated plus-maze test [3] | Tnfα gene expression in liver tissue [2] | Ifnγ gene expression in liver tissue [2] | Il-6 gene expression in liver tissue [2] | arthritis index ([1]; after day 30 until the experiment end day) | arthritis index ([1]; day 30 after the first CII injection) | histopathological changes in hind paw tissue (H&E): inflammatory cell infiltration, synovial proliferation, pannus formation [1] | quantitative histopathological arthritis index [1] | Il-1rn, additional anti-inflammatory index (liver gene expression) [2] |
| --- | --- | --- | --- | --- | --- | --- | --- | --- | --- | --- | --- | --- | --- | --- | --- | --- | --- | --- |
| AVSSIKGAY (PEP001) | significantly decreased | significantly decreased from day 30 after the first CII injection to the experiment end day | reduced overall | significantly increased | decreased close to a significant level | significantly decreased | significantly increased | significantly decreased | significantly decreased | increased |  |  |  |  |  |  |  |  |
| AGAY (PEP006) | significantly decreased | significantly decreased on day 28 after the first injection of CII; also recorded: tended to decrease from day 30 to the experiment end day | remarkably improved |  |  |  |  | tended to decrease | decreased |  | tended to decrease |  |  |  |  |  |  |  |
| RGAY (PEP007) | significantly decreased | significantly decreased from day 28 after the first CII injection to the experiment end day | remarkably improved |  |  |  |  | tended to decrease | decreased |  | significantly decreased | tended to decrease | tended to decrease |  |  |  |  |  |
| AGS [PEP012] | significantly decreased | significantly decreased from day 32 after the first CII injection to the experiment end day | relieved overall |  | tended to decrease |  |  | tended to decrease | decreased |  |  |  |  |  |  |  |  |  |
| AVS (AVSSIKGAY) [PEP004] | significantly decreased | significantly decreased from day 32 after the first CII injection to the experiment end day | reduced overall | significantly increased | decreased close to a significant level | significantly decreased | significantly increased | significantly decreased | significantly decreased | increased | significantly decreased |  |  |  |  |  |  |  |
| IGAY (PEP008) | significantly decreased | significantly decreased from day 30 to day 32 after the first CII | remarkably improved |  | significantly decreased |  |  | tended to decrease | decreased |  | significantly decreased | decreased close to a significant level | tended to decrease |  |  |  |  |  |
| B1 | significantly decreased |  | reduced overall | significantly increased | significantly decreased | decreased | increased | significantly decreased | significantly decreased | increased |  |  |  | significantly decreased | decreased close to a significant level | significantly diminished | significantly decreased or tended to decrease | significantly increased |

— patent US20240209022A1, “NOVEL PEPTIDE HAVING ANTI-INFLAMMATORY AND TISSUE REGENERATIVE ACTIONS” (KOREA RESEARCH INSTITUTE OF BIOSCIENCE AND BIOTECHNOLOGY, priority 2020, published 2024)
